Measurements published in US12478603B2, “Serum metabolites as biomarkers for carnitine treatment of sepsis” (priority 2020, dated 2025).
“Also recorded” adds a separate entry of the source. Like-named read-outs stand apart in the source and are kept apart here.

How the values were obtained:
[1] = test system: patients with septic shock; experiment: Pharmacometabolomic analysis of the RACE trial: mortality after L-carnitine stratified by pre-treatment serum acetylcarnitine; type: in vivo, human; details: for 90-day mortality: high (≥36 μM) pretreatment acetylcarnitine, placebo 100%; for hazard ratio (Mantel-Haenszel) / Kaplan-Meier curve, mortality benefit: 18 g vs placebo
Source text: Patient selection: Detailed inclusion and exclusion criteria have been previously reported (see, e.g., Jones (2018) “Effect of Levocarnitine vs Placebo as an Adjunctive Treatment for Septic Shock: The Rapid Administration of Carnitine in Sepsis (RACE) Randomized Clinical Trial” JAMA Netw Open 1: e186076, incorporated herein by reference). Briefly, patients presenting with suspected or confirmed infection and meeting consensus criteria for septic shock including administration of continuous vasopressors despite adequate fluid resuscitation, an elevated lactate>2 mmol/L, and a SOFA score of at least 5 were eligible for inclusion. All patients enrolled in the clinical trial were included in the present analysis with the exception of two patients who withdrew consent following randomization and 12 that lacked a T0 sample (FIG. 6).
Blood sampling. Following consent but prior to initiation of therapy, whole blood was drawn into serum separator tubes (SST; Vacutainer, Becton Dickinson, Franklin Lakes, NJ) and was allowed to clot for at least 30 minutes at room temperature. A portion of whole blood was aliquoted, while the remainder was centrifuged to yield serum. All samples were then frozen at −80° C. within 60 minutes of the initial sample acquisition. This approach has been previously utilized to yield samples appropriate for metabolomics analyses (see, e.g., Puskarich (2015) “Pharmacometabolomics of L-carnitine treatment response phenotypes in patients with septic shock” Ann Am Thorac Soc 12: 46-56, incorporated herein by reference). At the completion of the clinical trial, serum samples were shipped on dry ice to the University of Michigan for assay.
Measurement of Acylcarnitines: Analysis was performed consistent with prior methods (see, e.g., Puskarich (2018) “Septic Shock Nonsurvivors Have Persistently Elevated Acylcarnitines Following Carnitine Supplementation” Shock 49: 412-419, incorporated herein by reference). Briefly, at the time of analysis, serum samples were thawed on ice and extraction solvent was prepared consisting of a 1:1:1 mixture of methanol:acetonitrile:acetone plus a 1:200 dilution of a stock mixture of stable-isotope labeled acylcarnitine standards dissolved according to manufacturer instructions (NSK-B, Cambridge Isotope Laboratories). Acylcarnitine species were then analyzed without derivatization by RPLC-MS/MS using an Agilent 1200 LC coupled to an Agilent 6410 tandem quadrupole (Santa Clara, CA). A pooled sample generated by combining a small volume of all study samples was injected every 10th run and was used for intra-batch and inter-batch drift correction as described below. Absolute quantitation by isotope dilution mass spectrometry was performed for acylcarnitine species with exact-matching stable isotope internal standards (L-carnitine, C2, C3, C4, C5, C8, C14, C16) by multiplying the ratio of the unlabeled peak area/labeled peak area by the known concentration of acylcarnitine in the extraction solvent, then adjusting for dilution of the original serum sample. Other acylcarnitine species were limited to relative quantification by peak area.
By 90 days, 90% of the deaths occurred and the interaction term between L-carnitine treatment and mortality flattened (FIG. 7). Based on this analysis, 90-day mortality was chosen as the primary clinical outcome.
Statistical analysis: For logistic regression modeling, treatment assignment was scaled from 0 (placebo) to 1 (18 g L-carnitine) and age and SOFA score were z-scale normalized. Two main models were developed for each metabolite. The base model was described by log it(p)=B0+BD*Dose+BM*Metabolitei, where p is the probability of mortality in 90 days. The treatment interaction was modeled with: log it(p)=B0+(BD*Dose)+(BM*Metabolitei)+(BMD*Metabolitei)*Dose […]

[2] = test system: patients with septic shock; details: cited from earlier work; for absolute mortality reduction at 28 days compared to saline placebo: 18 g dose, non-significant

SMILES: C[N+](C)(C)C[C@H](O)CC(=O)[O-] [L-carnitine]
- predicted probability of 90-day mortality (interaction logistic regression model) ([1]; as baseline acetylcarnitine concentration increases, dose 0, 6, 12, 18 g): declines with increasing L-carnitine dose
- 90-day mortality ([1]; L-carnitine 18 g, p=0.002): 50%
- 90-day mortality ([1]; L-carnitine any dose, p=0.02): 69%
- proportion of 90-day non-survivors by dose received ([1]; low baseline acetylcarnitine tertile (normalized [−2.21, −0.508], n=79), placebo, 6, 12, 18 g, Fisher's exact test p=0.81): not associated with dose received; also recorded: not different between placebo or L-carnitine doses
- treatment benefit (90-day mortality) ([1]; patients with acetylcarnitine less than 36 μM): no treatment benefit
- treatment / mortality benefit ([1]; patients with acetylcarnitine ≥26 μM, L-carnitine 18 g, additional analysis (trend)): received a treatment benefit; also recorded: derived a mortality benefit
- hazard ratio (Mantel-Haenszel) ([1]; scenario 1: no acetylcarnitine threshold): not significant
- Kaplan-Meier curve, mortality benefit ([1]; scenario 1: no acetylcarnitine threshold, n=170, p=0.28): no mortality benefit
- hazard ratio (Mantel-Haenszel) ([1]; scenario 2: acetylcarnitine (C2) threshold ≥26 μM): improved but is not significant
- Kaplan-Meier curve, mortality benefit ([1]; scenario 2: acetylcarnitine (C2) threshold ≥26 μM, 52 patients, p=0.14): no mortality benefit
- hazard ratio (Mantel-Haenszel) ([1]; scenario 3: acetylcarnitine (C2) threshold ≥30 μM): significant and favors L-carnitine (18 g)
- Kaplan-Meier curve, mortality benefit ([1]; scenario 3: acetylcarnitine (C2) threshold ≥30 μM, 42 patients, p=0.01): mortality benefit
- hazard ratio (Mantel-Haenszel) ([1]; scenario 4: acetylcarnitine (C2) threshold ≥36 μM): significant
- Kaplan-Meier curve, mortality benefit ([1]; scenario 4: acetylcarnitine (C2) threshold ≥36 μM, 34 patients, p=0.004): mortality benefit
- reduction in sequential organ failure assessment (SOFA) score at 48 hours ([2]; 6, 12 or 18 g): none of the tested L-carnitine doses produced a significant reduction
- absolute mortality reduction at 28 days compared to saline placebo ([2]; intention to treat analysis): 3%
- absolute mortality reduction at 28 days compared to saline placebo ([2]; per protocol analysis): 6%
